# Columns and labels:
# [1] = target: Dihydrofolate reductase (Lactobacillus casei, UniProt P00381)
# Description: Inhibitory activity against Dihydrofolate reductase from Lactobacillus casei
# [2] = test system: Toxoplasma gondii; test: Inhibitory activity against cultured Toxoplasma gondii; format: functional, organism-based
# [3] = Ratio of the inhibitory concentrations against Toxoplasma gondii […] and Toxoplasma gondii DHFR.
# [4] = target: T1, Dihydrofolate reductase (Pneumocystis carinii, UniProt P16184)
# T1 sequence (P16184 whole entry): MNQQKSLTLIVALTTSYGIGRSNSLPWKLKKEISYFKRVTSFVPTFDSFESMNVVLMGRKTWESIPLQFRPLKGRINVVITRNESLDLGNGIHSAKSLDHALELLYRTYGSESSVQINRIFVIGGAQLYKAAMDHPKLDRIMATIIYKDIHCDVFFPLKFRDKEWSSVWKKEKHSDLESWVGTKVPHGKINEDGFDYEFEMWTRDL
# Description: Inhibitory activity against Dihydrofolate reductase from Pneumocystis carinii
# [5] = target: T2, Bifunctional dihydrofolate reductase-thymidylate synthase (Toxoplasma gondii, UniProt Q07422)
# T2 sequence (Q07422 whole entry): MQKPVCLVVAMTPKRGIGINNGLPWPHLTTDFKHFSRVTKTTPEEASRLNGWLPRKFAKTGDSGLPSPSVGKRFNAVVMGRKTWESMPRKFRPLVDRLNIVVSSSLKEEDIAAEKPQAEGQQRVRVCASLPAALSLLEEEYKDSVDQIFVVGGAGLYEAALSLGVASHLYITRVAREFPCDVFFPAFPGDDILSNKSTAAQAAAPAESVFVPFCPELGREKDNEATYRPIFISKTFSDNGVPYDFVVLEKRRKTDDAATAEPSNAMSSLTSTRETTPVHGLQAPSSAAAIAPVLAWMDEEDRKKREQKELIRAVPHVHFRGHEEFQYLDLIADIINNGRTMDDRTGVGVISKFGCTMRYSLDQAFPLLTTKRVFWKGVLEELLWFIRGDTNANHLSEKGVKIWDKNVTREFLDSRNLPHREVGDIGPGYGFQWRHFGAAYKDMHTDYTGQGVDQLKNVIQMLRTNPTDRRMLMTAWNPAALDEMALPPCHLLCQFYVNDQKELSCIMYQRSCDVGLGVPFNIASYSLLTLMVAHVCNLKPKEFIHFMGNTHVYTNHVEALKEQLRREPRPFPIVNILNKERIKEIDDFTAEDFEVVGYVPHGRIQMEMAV
# Description: Inhibitory activity against Dihydrofolate reductase from Toxoplasma gondii
# [6] = target: T3, Dihydrofolate reductase (Rattus norvegicus, UniProt Q920D2)
# T3 sequence (Q920D2 whole entry): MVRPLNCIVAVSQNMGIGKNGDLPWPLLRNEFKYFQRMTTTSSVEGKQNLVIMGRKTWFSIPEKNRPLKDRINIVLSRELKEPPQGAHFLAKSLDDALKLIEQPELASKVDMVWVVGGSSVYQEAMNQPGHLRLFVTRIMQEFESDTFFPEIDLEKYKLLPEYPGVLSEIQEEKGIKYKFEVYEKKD
# Description: Inhibitory activity against Dihydrofolate reductase from rat liver
# [7] = test system: 786-0; test: Cytotoxic activity against 786-0 Renal cancer cell line; format: functional; conditions: Homo sapiens
# [8] = test system: ACHN; test: Cytotoxic activity against ACHN Renal cancer cell line; format: functional; conditions: Homo sapiens
# [9] = test system: A549; test: Cytotoxic activity against A549/ATCC non-small cell-lung cancer cell line; format: functional; conditions: Homo sapiens
# [10] = test system: CCRF-CEM; test: Cytotoxic activity against CCRF-CEM Leukemia cell line; format: functional; conditions: Homo sapiens
# [11] = test system: DU-145; test: Cytotoxic activity against DU-145 Prostate cancer cell line; format: functional; conditions: Homo sapiens
# [12] = test system: HCT-15; test: Cytotoxic activity against HCT-15 colon cancer cell line; format: functional; conditions: Homo sapiens
# [13] = test system: HCT-116; test: Cytotoxic activity against HCT116 colon cancer cell line; format: functional; conditions: Homo sapiens
# [14] = test system: HT-29; test: Cytotoxic activity against HT-29 colon cancer cell line; format: functional; conditions: Homo sapiens
# [15] = test system: IGROV-1; test: (§1) Cytotoxic activity against IGROV1 Ovarian cancer cell line; format: functional; conditions: Homo sapiens
# [16] = test system: MOLT-4; test: Cytotoxic activity against MOLT-4 Leukemia cell line; format: functional; conditions: Homo sapiens
# [17] = test system: LOX IMVI; test: Cytotoxic activity against LOXIMVI Melanoma cell line; format: functional; conditions: Homo sapiens
# [18] = test system: MDA-MB-435; test: Cytotoxic activity against MDA-MB-435 Breast cancer cell line; format: functional; conditions: Homo sapiens
# [19] = test system: MDA-MB-231; test: Cytotoxic activity against MDA-MB-231/ATCC Breast cancer cell line; format: functional; conditions: Homo sapiens
# [20] = test system: MDA-N; test: Cytotoxic activity against MDA-N breast cancer cell line; format: functional; conditions: Homo sapiens
# [21] = test system: NCI-H460; test: Cytotoxic activity against NCI-H460 non-small cell-lung cancer cell line; format: functional; conditions: Homo sapiens
# [22] = test system: NCI-H322M; test: Cytotoxic activity against NCI-H322M non-small cell-lung cancer cell line; format: functional; conditions: Homo sapiens
# [23] = test system: PC-3; test: Cytotoxic activity against PC-3 Prostate cancer cell line; format: functional; conditions: Homo sapiens
# [24] = test system: SR; test: Cytotoxic activity against SR Leukemia cell line; format: functional; conditions: Homo sapiens
# [25] = test system: SF-295; test: Cytotoxic activity against SF-295 CNS cancer cell line; format: functional; conditions: Homo sapiens
# [26] = test system: SK-MEL-5; test: Cytotoxic activity against SK-MEL-5 Melanoma cell line; format: functional; conditions: Homo sapiens
# [27] = test system: UACC-62; test: Cytotoxic activity against UACC-62 Melanoma cell line; format: functional; conditions: Homo sapiens
# [28] = test system: UACC-257; test: Cytotoxic activity against UACC-257 Melanoma cell line; format: functional; conditions: Homo sapiens
# [29] = test system: U-251; test: Cytotoxic activity against U251 CNS cancer cell line; format: functional; conditions: Homo sapiens
# [30] = test system: K562; test: Cytotoxic activity against K-562 Leukemia cell line; format: functional; conditions: Homo sapiens
# [31] = test system: SF-268; test: Cytotoxic activity against SF-268 CNS canser cell line; format: functional; conditions: Homo sapiens
# [32] = as §1; format: functional; conditions: Homo sapiens, IGROV-1
# [33] = test system: MDA-N; test: Cytotoxic activity against MDA-N Breast cancer cell line; format: functional; conditions: Homo sapiens
# [34] = test system: SW-620; test: Cytotoxic activity against SW-620 colon cancer cell line; format: functional; conditions: Homo sapiens
# Sequence of Dihydrofolate reductase (Lactobacillus casei, UniProt P00381) (P00381 whole entry): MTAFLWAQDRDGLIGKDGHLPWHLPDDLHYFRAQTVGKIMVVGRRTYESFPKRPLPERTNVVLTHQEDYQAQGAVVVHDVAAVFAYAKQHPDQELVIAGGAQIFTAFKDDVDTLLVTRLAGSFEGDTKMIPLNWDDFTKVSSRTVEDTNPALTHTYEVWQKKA
structure (smiles),measurement,setting,value
COc1cc(NCc2ccc3nc(N)nc(N)c3c2C)cc(OC)c1OC [TRIMETREXATE],IC50,[1],27 nM
COc1cc(NCc2cnc3nc(N)nc(N)c3c2C)cc(OC)c1,IC50,[2],600 nM
same,Ratio,[3],125
same,IC50,[4],22.9 nM
same,IC50,[5],4.8 nM
same,IC50,[6],42.5 nM
COc1ccc(NCc2cnc3nc(N)nc(N)c3c2C)c(OC)c1,GI50,[7],588 nM
same,GI50,[8],2890 nM
same,GI50,[9],635 nM
same,GI50,[10],4290 nM
same,GI50,[11],2830 nM
same,GI50,[12],2200 nM
same,GI50,[13],173 nM
same,GI50,[14],2380 nM
same,GI50,[15],6.27 µM
same,GI50,[16],1220 nM
same,GI50,[17],3350 nM
same,GI50,[18],3.53 µM
same,GI50,[19],1910 nM
same,GI50,[20],359 nM
same,GI50,[21],481 nM
same,GI50,[22],50.6 µM
same,GI50,[23],852 nM
same,GI50,[24],3530 nM
same,GI50,[25],1610 nM
same,GI50,[26],1150 nM
same,GI50,[27],126000 nM
same,GI50,[28],100 µM
same,GI50,[29],5810 nM
same,GI50,[30],305 nM
same,GI50,[31],4170 nM
same,IC50,[4],316 nM
same,IC50,[5],56.5 nM
same,IC50,[6],214 nM
COc1ccc(NCc2cnc3nc(N)nc(N)c3c2C)c2ccccc12,GI50,[7],55 nM
same,GI50,[8],47.9 nM
same,GI50,[9],38.4 nM
same,GI50,[10],76.6 nM
same,GI50,[11],52.1 nM
same,GI50,[12],45.6 nM
same,GI50,[13],11.7 nM
same,GI50,[14],72.3 nM
same,GI50,[32],86.8 nM
same,GI50,[16],91.1 nM
same,GI50,[17],69.4 nM
same,GI50,[18],0.0621 µM
same,GI50,[19],18.8 nM
same,GI50,[33],42.5 nM
same,GI50,[21],49.1 nM
same,GI50,[22],0.085 µM
same,GI50,[23],79.8 nM
same,GI50,[34],0.0796 µM
same,GI50,[24],76 nM
same,GI50,[25],83.2 nM
same,GI50,[26],57.8 nM
same,IC50,[2],40 nM
same,GI50,[27],43.2 nM
same,GI50,[28],0.0868 µM
same,GI50,[29],72.9 nM
same,Ratio,[3],2
same,GI50,[30],16.1 nM
same,GI50,[31],60.4 nM
same,IC50,[4],41 nM
same,IC50,[5],23 nM
same,IC50,[6],54 nM
C#CCN(Cc1cnc2nc(N)nc(N)c2c1C)c1cc(OC)c(OC)c(OC)c1,IC50,[4],53.5 nM
same,IC50,[5],7.7 nM
same,IC50,[6],11.8 nM
Cc1c(CNc2cccc3ccccc23)cnc2nc(N)nc(N)c12,IC50,[2],100 nM
same,Ratio,[3],7
same,IC50,[4],573 nM
same,IC50,[5],14.5 nM
same,IC50,[6],29.6 nM
CCOc1ccc(OCC)c(N(C)Cc2cnc3nc(N)nc(N)c3c2C)c1,IC50,[4],3100 nM
same,IC50,[5],100 nM
same,IC50,[6],3000 nM
COc1cc(OC)cc(N(C)Cc2cnc3nc(N)nc(N)c3c2C)c1,GI50,[7],630 nM
same,GI50,[8],816 nM
same,GI50,[9],442 nM
same,GI50,[10],536 nM
same,GI50,[11],4360 nM
same,GI50,[12],2120 nM
same,GI50,[13],410 nM
same,GI50,[14],5840 nM
same,GI50,[15],0.956 µM
same,GI50,[16],742 nM
same,GI50,[17],1990 nM
same,GI50,[18],6.93 µM
same,GI50,[19],9220 nM
same,GI50,[33],527 nM
same,GI50,[21],544 nM
same,GI50,[23],594 nM
same,GI50,[34],5.5 µM
same,GI50,[24],541 nM
same,GI50,[25],5150 nM
same,GI50,[26],596 nM
same,GI50,[27],628 nM
same,GI50,[28],0.62 µM
same,GI50,[29],529 nM
same,GI50,[30],209 nM
same,GI50,[31],717 nM
same,IC50,[4],130 nM
same,IC50,[5],58 nM
same,IC50,[6],170 nM
COc1ccc(N(C)Cc2cnc3nc(N)nc(N)c3c2C)cc1OC,IC50,[4],320 nM
same,IC50,[5],29 nM
same,IC50,[6],44 nM
CCOc1ccc(OCC)c(NCc2cnc3nc(N)nc(N)c3c2C)c1,IC50,[2],320 nM
same,Ratio,[3],19
same,IC50,[4],76.7 nM
same,IC50,[5],17 nM
same,IC50,[6],17.4 nM
COc1ccc(NCc2cnc3nc(N)nc(N)c3c2C)cc1OC,IC50,[4],44 nM
same,IC50,[5],8.8 nM
same,IC50,[1],83 nM
same,IC50,[6],7.6 nM
CCN(Cc1cnc2nc(N)nc(N)c2c1C)c1cc(OC)c(OC)c(OC)c1,IC50,[4],49.7 nM
same,IC50,[5],7.7 nM
same,IC50,[6],10.5 nM
COc1ccc(N(C)Cc2cnc3nc(N)nc(N)c3c2C)c(OC)c1,IC50,[2],1730 nM
same,Ratio,[3],46
same,IC50,[4],510 nM
same,IC50,[5],38 nM
same,IC50,[6],330 nM
COc1ccc(OC)c(NCc2cnc3nc(N)nc(N)c3c2C)c1,IC50,[2],1500 nM
same,Ratio,[3],94
same,IC50,[4],46 nM
same,IC50,[5],16 nM
same,IC50,[1],39 nM
same,IC50,[6],128 nM
COc1ccc(OC)c(N(C)Cc2cnc3nc(N)nc(N)c3c2C)c1,GI50,[7],843 nM
same,GI50,[8],3750 nM
same,GI50,[9],732 nM
same,GI50,[10],7150 nM
same,GI50,[11],2710 nM
same,GI50,[12],2540 nM
same,GI50,[13],3970 nM
same,GI50,[14],3220 nM
same,GI50,[15],5.45 µM
same,GI50,[16],3160 nM
same,GI50,[17],5820 nM
same,GI50,[18],4.18 µM
same,GI50,[19],764 nM
same,GI50,[33],6620 nM
same,GI50,[22],5.56 µM
same,GI50,[23],783 nM
same,GI50,[34],5.04 µM
same,GI50,[24],7450 nM
same,GI50,[25],3410 nM
same,GI50,[26],1560 nM
same,IC50,[2],1050 nM
same,GI50,[27],1150 nM
same,GI50,[28],20 µM
same,GI50,[29],4210 nM
same,Ratio,[3],35
same,GI50,[30],499 nM
same,GI50,[31],5910 nM
same,IC50,[4],216 nM
same,IC50,[5],30.1 nM
same,IC50,[6],407 nM
COc1cc(N(Cc2cnc3nc(N)nc(N)c3c2C)C(C)C)cc(OC)c1OC,IC50,[4],13.4 nM
same,IC50,[5],6.7 nM
same,IC50,[1],210 nM
same,IC50,[6],17.5 nM
COc1cc(N(C)Cc2cnc3nc(N)nc(N)c3c2C)cc(OC)c1OC,IC50,[2],4700 nM
